# Test results as given in US7201896B1, “IL6RIL6 chimera for the treatment of neurodegenerative diseases” (Yeda Research and Development Company Ltd., priority 1999, dated 2007).
# Experiments:
# [1] = test system: hippocampal organotypic slices; assay: NMDA-induced cell death in hippocampal organotypic slices, propidium iodide; format: cell-based, rat; conditions: 0.1 ng/ml
# Description: The cultures were prepared as previously described by Bahr et al. (Bahr 1995) with minor modifications. Hippocampi were dissected out from eight day old Wistar rats and 400 μm thick slices were laid down on a porous and transparent Millicell-CM membrane (Millipore) and cultured in 6 wells multiwell plates. Four slices were placed on each membrane. Culture medium consisted of 50% minimal essential medium (+25 mM HEPES, +4 mM NaHCO3+NaOH pH 7.2), 25% horse serum and 25% Hanks' solution, glucose (6.4 g/l), penicillin/streptomycin (10 ml/l), L-glutamine (2 mM). Cultures were kept in a 5% CO2 incubator set at a temperature of 37° C. for at least 3 weeks before being used. Medium was changed every week.
# Hippocampal slices were exposed to IL6 or to the IL6 chimera at concentrations ranging […] for 15 min, thereafter NMDA 50 μM was added for additional 30 min. […] NMDA-induced cell death was evaluated either 1 or 3–7 days after the experimental injury by incubating cultures for 1 hour in fresh medium containing propidium iodide (PI 5 μl/ml). […] The emitted red fluorescence (marker of cell death) was examined using an inverted fluorescence microscope (Zeiss) associated with an intensified charged-coupled device camera. Quantification of total fluorescence was performed by an image analysis system (Image Pro Plus).
# [2] = test system: rat cerebellar granule cells; assay: Glutamate-induced neurotoxicity in primary cerebellar granule cells; format: cell-based; conditions: 0.1 to 10 ng/ml; glutamate 50 μM
# Description: Activation of glutamate ionotropic receptors represents the primary event in the neurotoxicity process triggered by excitatory amino acids. Primary cultures of new born rat cerebella neurons (which contain >97% neurons) were employed for studying the effects of the IL6 chimera on glutamate-induced neurotoxicity and compared to the effects of IL-6.
# Primary cultures of cerebellar granule cells were prepared from 8 day-old Sprague-Dawley rat pups as previously described (Pizzi et al. 1993). Cells were plated onto poly-L-Lysine-coated dishes and cultured in basal Eagle's medium containing 10% heat-inactivated foetal bovine serum, glutamine (2 mM), gentamicin (50 μg/ml), and KCl (25 mM), at a density of 2.5×10^5 cells/cm^2. Cytosine Arabinoside (10 μM) was added to the cultures 18 h after seeding to prevent non neuronal cell proliferation. Experiments were carried out after culturing the neurons for 10 days.
# Unless otherwise indicated, cultures were exposed for 15 min to 50 μM glutamate in a Mg^2+-free Locke's solution. IL6 or the IL6 chimera were added 5 min before glutamate treatment. Dishes were then returned to cultured conditioned medium at 37° C. in 95% air/5% CO2 and cell viability was measured 18–24 hours later.
# Cell viability was evaluated 18 h later by intravital staining with fluorescein diaceate and propidium iodide mixture, as previously described (Pizzi et al. 1993). […]
# [3] = test system: dorsal root ganglia (DRG) explants, embryonic Schwann cells; assay: Embryonic dorsal root ganglia (DRG) explant cultures: microscopy, scanning EM, anti-MBP staining; format: cell-based, mouse; conditions: IL6RIL6 3 μg/ml, NGF 40 ng/ml
# Description: In the spinal cord, the dorsal root comprises essentially sensory neurons, which form synapses in the dorsal root ganglia (DRG). During mouse embryogenesis (at day e14–e15), DRGs are a convenient source of neurons and of embryonic Schwann cells which have not yet differentiated into myelinating SC. Procedures to obtain explants of DRGs for in vitro cultures are described by Li (1998). The cultures were performed on glass coverslips placed in the wells of Costar plates, in medium F12/DMEM (Gibco). The coverslips were coated either with collagen or with poly-D-lysine, with essentially similar results. Cultures were either done in medium without growth factor or cytokine additions or in medium supplemented with nerve growth factor (NGF, 40 ng/ml), or in medium supplemented with IL6RIL6 chimeric recombinant proteins (3 μg/ml). The cultures were examined daily by light microscopy with an Olympus inverted microscope linked to a video-camera imaging system (Leica LIDA system). Part of the coverslips were fixed in paraformaldehyde and MBP proteins were labeled with monoclonal primary antibodies to myelin basic proteins and fluorescein-conjugated secondary antibody. Neuronal cell bodies and axons were stained with antibodies to neurofilament protein. Some of the coverslips were examined by scanning electron microscopy (EM).
# [4] = test system: Rat sciatic nerve Schwann cell lines cells with murine DRG neurons; assay: Co-culture of DRG neuronal cells with fluorogold-labeled Schwann cells; format: cell-based
# Text: By culturing murine DRG in the presence of DNA synthesis inhibitors arabinoseC (AraC) and fluorodeoxyuridine (FudR), neuronal cells can develop axons while glial cell proliferation is inhibited. These DRG cultures can be used as a source of neuronal cells with non-myelinated axons. Schwann cells are exogenously added to these cultures to study the interaction between neurons and Schwann cells.
# Rat sciatic nerve Schwann cell lines cells were labeled with fluorogold, a label that penetrates the cell membrane lipid bi-layer and is maintained for an extensive period of time without affecting cell function. […] This system allows to study the various steps in the myelination process which are affected by the IL-6 chimera.
Substance,"neuronal cells protected from NMDA-induced cell death ([1]; after one day, NMDA 50 μM)",cells protected from NMDA-induced cell death ([1]; day 5) [%],protection from glutamate-induced neurotoxicity [2],Staining with anti-MBP [3],Schwann cells along axons in DRG explant cultures ([3]; after 2 to 5 days),sheath formation around the axons ([4]; after a few days),binding of the Schwann cells along the axons ([4]; within 5 hours)
"IL-6: Interleukin-6, cytokine used as comparator",approximately 50%,30,no protective effect,–,–,–,–
NGF: nerve growth factor,–,–,–,little MBP-specific fluorescence,no Schwann cells were observed along the axons,do not form a sheath,bind much less
